Columns and labels:
ternary SpNatC = molecular target: T1, ternary SpNatC (Schizosaccharomyces pombe, UniProt O74311+Q9USY3); test: isothermal titration calorimetry; type: binding
T1 sequence (O74311 1-150): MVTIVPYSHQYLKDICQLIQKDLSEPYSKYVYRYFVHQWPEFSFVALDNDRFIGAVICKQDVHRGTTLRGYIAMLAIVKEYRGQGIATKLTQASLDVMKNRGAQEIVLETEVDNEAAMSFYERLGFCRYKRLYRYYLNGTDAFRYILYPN
T1 sequence (Q9USY3 31-708): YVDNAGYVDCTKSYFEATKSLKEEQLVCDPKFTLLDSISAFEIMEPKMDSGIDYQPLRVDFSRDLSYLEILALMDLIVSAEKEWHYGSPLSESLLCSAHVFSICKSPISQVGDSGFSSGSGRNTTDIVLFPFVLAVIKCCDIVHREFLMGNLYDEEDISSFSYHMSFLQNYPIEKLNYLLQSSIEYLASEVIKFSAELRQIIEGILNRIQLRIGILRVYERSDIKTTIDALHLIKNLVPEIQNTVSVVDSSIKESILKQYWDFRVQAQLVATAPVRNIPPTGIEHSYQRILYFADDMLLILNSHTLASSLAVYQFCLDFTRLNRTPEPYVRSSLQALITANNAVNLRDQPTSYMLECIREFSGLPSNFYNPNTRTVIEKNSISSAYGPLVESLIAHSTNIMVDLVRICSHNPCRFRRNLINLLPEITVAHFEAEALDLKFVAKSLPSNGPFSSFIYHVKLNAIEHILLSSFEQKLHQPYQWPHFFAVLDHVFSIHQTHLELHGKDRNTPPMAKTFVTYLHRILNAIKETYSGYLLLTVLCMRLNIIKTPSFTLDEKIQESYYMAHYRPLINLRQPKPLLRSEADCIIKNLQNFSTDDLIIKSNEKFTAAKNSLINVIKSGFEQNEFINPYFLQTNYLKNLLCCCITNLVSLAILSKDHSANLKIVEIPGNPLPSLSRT
T1 sequence (O43080 4-72 partner limits assumed): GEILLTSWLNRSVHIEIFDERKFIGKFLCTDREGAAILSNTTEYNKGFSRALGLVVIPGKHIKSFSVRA

SpNatA = molecular target: T2, SpNatA (Schizosaccharomyces pombe, UniProt O74985+Q9UTI3); test: […] acetyltransferase assay with and without IP6; type: biochemical; details: 2 μM IP6, 50 μM Ac-CoA, 50 μM SASE peptide, pH 7.0, room temperature
T2 sequence (Q9UTI3 1-156): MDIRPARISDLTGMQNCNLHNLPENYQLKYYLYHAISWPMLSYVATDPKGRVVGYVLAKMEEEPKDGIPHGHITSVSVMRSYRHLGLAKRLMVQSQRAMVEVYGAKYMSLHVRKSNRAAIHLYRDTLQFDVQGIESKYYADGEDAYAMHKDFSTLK
T2 sequence (O74985 1-729): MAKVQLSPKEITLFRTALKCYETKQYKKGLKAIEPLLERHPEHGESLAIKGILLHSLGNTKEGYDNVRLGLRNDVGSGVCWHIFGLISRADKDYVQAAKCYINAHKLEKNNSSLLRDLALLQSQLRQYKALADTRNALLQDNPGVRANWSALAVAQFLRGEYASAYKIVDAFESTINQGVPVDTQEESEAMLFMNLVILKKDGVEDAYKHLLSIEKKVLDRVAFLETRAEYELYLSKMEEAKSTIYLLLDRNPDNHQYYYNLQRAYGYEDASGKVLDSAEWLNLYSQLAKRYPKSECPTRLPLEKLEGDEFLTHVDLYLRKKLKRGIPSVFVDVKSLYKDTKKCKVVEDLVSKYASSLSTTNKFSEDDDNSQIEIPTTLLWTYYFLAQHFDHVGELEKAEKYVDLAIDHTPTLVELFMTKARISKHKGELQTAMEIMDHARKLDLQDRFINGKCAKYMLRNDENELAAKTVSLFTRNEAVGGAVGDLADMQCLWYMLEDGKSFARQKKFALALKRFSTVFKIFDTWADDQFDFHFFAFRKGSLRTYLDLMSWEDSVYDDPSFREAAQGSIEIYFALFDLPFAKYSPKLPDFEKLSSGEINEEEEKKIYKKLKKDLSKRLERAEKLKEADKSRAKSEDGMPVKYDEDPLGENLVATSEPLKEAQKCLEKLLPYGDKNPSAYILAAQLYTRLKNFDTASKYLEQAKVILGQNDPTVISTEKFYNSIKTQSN

hNatB = hNatB (Homo sapiens, UniProt P61599); test: […] acetyltransferase assay with and without IP6; type: biochemical; details: 2 μM IP6, 50 μM Ac-CoA, 50 μM MDVF peptide, pH 7.0, room temperature
hNatB, sequence (P61599 1-163): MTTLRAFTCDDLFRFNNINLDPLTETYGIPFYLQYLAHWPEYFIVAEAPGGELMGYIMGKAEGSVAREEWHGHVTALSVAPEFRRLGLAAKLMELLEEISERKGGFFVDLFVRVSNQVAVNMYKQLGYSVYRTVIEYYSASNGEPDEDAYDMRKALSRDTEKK
hNatB, sequence (Q14CX7 whole entry partner): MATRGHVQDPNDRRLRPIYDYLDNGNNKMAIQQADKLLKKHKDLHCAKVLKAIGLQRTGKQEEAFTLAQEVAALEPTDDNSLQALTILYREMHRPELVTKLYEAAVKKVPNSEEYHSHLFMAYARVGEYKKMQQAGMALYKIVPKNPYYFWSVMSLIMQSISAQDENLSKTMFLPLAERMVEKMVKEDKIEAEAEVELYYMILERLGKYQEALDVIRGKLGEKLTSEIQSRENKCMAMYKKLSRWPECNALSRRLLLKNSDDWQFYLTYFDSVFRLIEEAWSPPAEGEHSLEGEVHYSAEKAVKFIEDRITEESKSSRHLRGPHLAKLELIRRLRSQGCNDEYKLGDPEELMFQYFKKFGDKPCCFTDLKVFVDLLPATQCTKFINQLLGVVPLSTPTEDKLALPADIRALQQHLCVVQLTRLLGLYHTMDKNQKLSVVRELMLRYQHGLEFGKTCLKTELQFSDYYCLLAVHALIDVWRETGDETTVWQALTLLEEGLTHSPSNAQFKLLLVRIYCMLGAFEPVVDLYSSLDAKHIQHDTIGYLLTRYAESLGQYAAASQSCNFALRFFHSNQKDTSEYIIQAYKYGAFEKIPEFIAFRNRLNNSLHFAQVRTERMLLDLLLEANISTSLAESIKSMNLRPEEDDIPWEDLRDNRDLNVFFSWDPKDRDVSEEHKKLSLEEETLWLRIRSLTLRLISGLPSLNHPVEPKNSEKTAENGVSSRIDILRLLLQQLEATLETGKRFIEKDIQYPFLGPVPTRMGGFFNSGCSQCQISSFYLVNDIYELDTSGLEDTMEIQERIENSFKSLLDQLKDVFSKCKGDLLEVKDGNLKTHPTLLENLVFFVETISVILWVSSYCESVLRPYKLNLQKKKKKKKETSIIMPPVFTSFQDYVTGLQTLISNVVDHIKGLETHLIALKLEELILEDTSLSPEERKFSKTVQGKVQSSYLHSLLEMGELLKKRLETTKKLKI

Kd (ternary SpNatC): ~225 nM
Structure (SMILES): O=P(O)(O)O[C@H]1[C@H](OP(=O)(O)O)[C@@H](OP(=O)(O)O)[C@H](OP(=O)(O)O)[C@@H](OP(=O)(O)O)[C@H]1OP(=O)(O)O [IP6, inositol hexaphosphate]
modest inhibition at 2 μM (SpNatA): produced a relatively modest inhibitory effect, as it also did for SpNatA and hNatB | modest inhibition at 2 μM (hNatB): produced a relatively modest inhibitory effect, as it also did for SpNatA and hNatB
